# US12281299B2, “Control of nitrogen fixation in rhizobia that associate with cereals” (Massachusetts Institute of Technology, priority 2019, dated 2025)
# Counter-ions that a name gives are not always drawn.
# Test system: P. protegens Pf-5
# Assay: Genetic part characterization for P. protegens (promoters, RBSs, terminators, inducible systems; fluorescence reporter, flow cytometry)
# Assay type: cell-based, Pseudomonas protegens
# Conditions: for function of inducible system: P. protegens Pf-5, pRO1600 plasmid; for Strength (GFP, au): synthetic RBS strength in P. protegens Pf-5, plasmid pMR-65, arabinose-inducible system, 7 μM arabinose induction
# From the text: Construction and characterization genetic parts for P. protegens. Genetic part libraries were built on a pRO1600-ori plasmid pMR-2 using Gibson assembly (New England Biolabs, Cat # E2611). The fluorescence proteins, GFPmut3b and mRFP1 were used as reporters. The Anderson promoter library on the BioBricks Registry were utilized for the characterization of constitutive promoters (FIGS. 11A-11C). The following combinations of cognate regulators and inducible promoters were characterized. IPTG inducible LacI-Ptac, DAPG inducible PhlF-PPhl, aTc inducible TetR-PTet, 3OC6HSL inducible LuxR-PLux, arabinose inducible AraC-PBAD, cuminic acid inducible CymR-PCym, and naringenin inducible FdeR-PFde were optimized (FIGS. 15A-15C). […] RBS library for GFP was designed using the RBS library calculator at the highest-resolution mode, and the 3′ end of the 16S rRNA sequences were adjusted according to the species (3′-ACCTCCTTA-5′ for P. protegens Pf-5). Terminators for T7 RNAP were characterized by placing a terminator between two fluorescence reporters expressed from a single T7 wild-type promoter located upstream of the first fluorescence protein GFP. The expression of the two fluorescence proteins is enabled by an IPTG-inducible T7 RNAP expression system of the controller strain MR7 (FIGS. 13A-13B). All genetic parts for P. protegens Pf-5 were characterized as follows.
Compound,function of inducible system,"Strength (GFP, au) [au]"
"CCCC(=O)CC(=O)N[C@H]1CCOC1=O [3OC6HSL, N-(3-Oxohexanoyl)-L-homoserine lactone, reference compound]",functional,
RBSp10 (DNA GAATTCTACACTAACGGACAGGAGGGTCGGATG; expressed or natural sequence),,11090
R135133 (DNA CTAGCGAAGGTCCAACGTTTTTCTAAGCCAGGAGGTCATATG; chemistry not fully specified),,19690
RBSp12 (DNA GAATTCTCAACTAACGGACAGGAGGGTCCGATG; expressed or natural sequence),,9590
RBSp14 (DNA GAATTCTCAGCTAACGGACAGGAGGGTCCGATG; expressed or natural sequence),,8766
RBSp8 (DNA GAATTCTAAGCTAACGGACAGGAGGGTCCGATG; expressed or natural sequence),,12790
"Cc1c2c(c(O)c3c(O)cccc13)C(=O)[C@]1(O)C(=O)C(C(N)=O)=C(O)[C@@H](N(C)C)[C@@H]1C2 [aTc, Anhydrotetracycline hydrochloride, reference compound]",functional,
"O=C1C[C@@H](c2ccc(O)cc2)Oc2cc(O)cc(O)c21 [naringenin, Naringenin, reference compound]",functional,
RBSp18 (DNA GAATTCTCAGCTAACGGACAGGAGGGTCGGATG; expressed or natural sequence),,5915
R135132 (DNA CTAGCGAAGGTCCAACGTTTTTCTAAGCAAGGAGGTCATATG; chemistry not fully specified),,21590
RBSp30 (DNA GAATTCTACGCTCACGGACAGCAGGGTCGGATG; expressed or natural sequence),,221
RBSp11 (DNA GAATTCTACGCTAACGGACAGGAGGGTCCGATG; expressed or natural sequence),,10390
RBSp24 (DNA GAATTCTCAACTCACGGACAGGAGGGTCGGATG; expressed or natural sequence),,3661
RBSp4 (DNA CTAGCGCAGGTCCAACGTTTTTCTAAGCCAGGAGGTCATATG; expressed or natural sequence),,19490
RBSp13 (DNA GAATTCTAAGCTAACGGACAGGAGGGTCGGATG; expressed or natural sequence),,8918
RBSp19 (DNA GAATTCTAAACTAACGGACAGGAGGGTCGGATG; expressed or natural sequence),,4867
RBSp23 (DNA GAATTCTAAGCTCACGGACAGGAGGGTCGGATG; expressed or natural sequence),,3829
RBSp31 (DNA GAATTCTCCGCTCACGGACAGGAGGGTCCGATG; expressed or natural sequence),,23.3
RBSp16 (DNA GAATTCTACGCTAACGGACAGGAGGGTCGGATG; expressed or natural sequence),,6055
RBSp22 (DNA GAATTCTACACTCACGGACAGGAGGGTCGGATG; expressed or natural sequence),,3977
RBSp29 (DNA CTAGCGAAGGTCCAACCTTTTTCTAAGCCAGTAGGTCATATG; expressed or natural sequence),,377
RBSp6 (DNA GAATTCTACACTAACGGACAGGAGGGTCCGATG; expressed or natural sequence),,14490
RBSp15 (DNA GAATTCTCAACTAACGGACAGGAGGGTCCGATG; expressed or natural sequence),,7596
RBSp9 (DNA GAATTCTTAACTAACGGACAGGAGGGTCCGATG; expressed or natural sequence),,11490
RBSp17 (DNA GAATTCTCAACTAACGGACAGGAGATATACATATG; expressed or natural sequence),,5939
